This passage reports melting point results from patent US7435837B2, “Dihydrobenzofuranyl alkanamine derivatives and methods for using same” (Wyeth, priority 2003, dated 2008).

Counter-ions that a name gives are not always drawn. Bounds are passed on as bounds.

One may read the melting point as the temperature of the solid-liquid transition. On to `CC1(CN)Cc2cc(Cl)cc(-c3ccsc3)c2O1` (racemic) (as salt: hydrochloride) [Example 113, (±)-(5-chloro-2-methyl-7-thien-3-yl-2,3-dihydro-1-benzofuran-2-yl)methylamine], for which the melting point was 295 to 298 °C (dec.).

`CNCC1Cc2cc(Cl)cc(-c3ccsc3)c2O1` (single isomer, unassigned; (+)) (as salt: hydrochloride) [Example 93, (+)-N-[(5-chloro-7-thien-3-yl-2,3-dihydro-1-benzofuran-2-yl)methyl]-N-methylamine] came in with a melting point of 263 to 266 °C.

`NCC1Cc2cccc(-c3ccc(Cl)cc3)c2O1` (racemic) (as salt: hydrochloride) [Example 76, (±)-1-[7-(4-chlorophenyl)-2,3-dihydro-1-benzofuran-2-yl]methanamine] gave a melting point of 212 to 214 °C.

`NCC1Cc2cc(F)cc(-c3ccccc3C(F)(F)F)c2O1` (single isomer, unassigned; (-)) (as salt: hydrochloride) [Example 151, (−)-1-{5-fluoro-7-[2-(trifluoromethyl)phenyl]-2,3-dihydro-1-benzofuran-2-yl}methanamine] returned a melting point of 183 to 188 °C.

For the molecule `Cc1ccccc1-c1cc(F)c(F)c2c1OC(CN)C2` (racemic) (as salt: hydrochloride) [Example 110, (±)-1-[4,5-difluoro-7-(2-methylphenyl)-2,3-dihydro-1-benzofuran-2-yl]methanamine], the melting point is > 224 °C.

As to `NCC1Cc2cc(Cl)cc(-c3ccccc3Cl)c2O1` (racemic) (as salt: hydrochloride) [Example 87, (±)-1-[5-chloro-7-(2-chlorophenyl)-2,3-dihydro-1-benzofuran-2-yl]methanamine], the melting point is 231 to 234 °C.

Consider `NCC1Cc2ccc(Cl)c(-c3ccccc3Cl)c2O1` (racemic) (as salt: hydrochloride) [Example 400, (±)-{[6-chloro-7-(2-chlorophenyl)-2,3-dihydro-1-benzofuran-2-yl]methyl}amine], for which the melting point is 221 to 223 °C.

`CC1(CN)Cc2cc(Cl)cc(-c3cccs3)c2O1` (racemic) (as salt: hydrochloride) [Example 114, (±)-(5-chloro-2-methyl-7-thien-2-yl-2,3-dihydro-1-benzofuran-2-yl)methylamine]: the melting point lay within 251 to 252 °C.

In turn, `CC(C)(C)c1cc(Cl)cc2c1OC(CN)C2` (single isomer, unassigned; (-)) (as salt: hydrobromid) [Example 28, (−)-1-(7-tert-butyl-5-chloro-2,3-dihydro-1-benzofuran-2-yl)methanamine] displayed a melting point of 219 to 222 °C.

For `CN(C)C[C@H]1Cc2cc(F)cc(-c3c(Cl)cccc3Cl)c2O1` (as salt: hydrochloride) [Example 547, (R)-[7-(2,6-dichloro-phenyl)-5-Fluoro-2,3-dihydro-benzofuran-2-ylmethyl]dimethylamine], the melting point fell in the range of 156 to 158 °C.

Take `NCC1Cc2cccc(-c3ccc(F)cc3)c2O1` (racemic) (as salt: hydrochloride) [Example 73, (±)-1-[7-(4-fluorophenyl)-2,3-dihydro-1-benzofuran-2-yl]methanamine]: the melting point is 237 to 240 °C.
